# According to patent US5922677A, “Therapeutic method and compounds of use therein” (Auckland UniServices Limited, priority 1994, dated 1999):
# Where a name gives a salt, the structure may show the parent alone. No end group written: not given here.
# Tests used:
# [1] = tested on: osteoblast-like cells from fetal rat calvariae; assay: Numbers of osteoblast-like cells in culture; format: cell-based; settings: for effect on cell number (osteoblast proliferation): growth-arrested cultures, 24 hours
# Excerpt: Cells were either (a) growth-arrested as a result of being cultured in the presence of 0.1% bovine serum albumin or (b) were actively growing in culture medium containing 2% fetal calf serum. n=6 in each group. Data are mean ± sem. Statistical significance (by Student's test) of differences from control: *p≤0.05; **p<0.005; ***p<0.001.
# [2] = tested on: osteoblast-like cells from fetal rat calvariae; assay: Numbers of osteoblast-like cells in culture; format: cell-based; settings: for Osteoblast Numbers after 24 h culture: mean ± SD
# [3] = tested on: calvariae of adult mice; assay: In vivo calvarial study, local injection over hemicalvaria, histomorphometry; settings: 4.1×10^-9 mol daily for 5 days over right hemicalvaria
# Excerpt: FIG. 4 Comparison of the in vivo effects of rat amylin, rat calcitonin (CT) and rat CGRP in adult mice. The daily dose of each peptide was 4.1×10^-9 mol. Data are expressed as the ratio of each index measured in the injected hemicalvaria to that measured in the contralateral, uninjected hemicalvaria. n=5 in each group. Data are mean ± sem. Significant differences (p<0.05) between the injected and uninjected hemicalvariae are indicated by asterisks.
# The effects of the peptides on bone histology in vivo were assessed by subcutaneously injecting the peptide daily for 5 days over the periosteum of the right hemicalvaria of adult, male Swiss-Webster mice. The animals were sacrificed 1 week following the last injection. Non-decalcified sections of the calvariae were prepared as described previously, Cornish, J., Callon, K., King, A., Edgar, S., and Reid, I. R. (1993) Endocrinology 132, 1359-1366. Quantitative histomorphometry was performed by an operator blinded to the treatment each animal had received. Data are expressed as the ratio of each index measured in the injected hemicalvaria to that measured in the contralateral, uninjected hemicalvaria of the same animal and have been evaluated by paired t tests.
# [4] = tested on: osteoblast-like cells from fetal rat calvariae; assay: Thymidine incorporation into osteoblast-like cells; format: cell-based; settings: time-course (FIG. 3), medium with 0.1% bovine serum albumin
# Experimental: FIG. 3 The effect of rat amylin on thymidine incorporation into osteoblast-like cells from fetal rat calvariae. Statistical significance of differences from control at each time-point: *p=0.002; **p<0.001. In both experiments the culture medium contained 0.1% bovine serum albumin. n=6 in each group. Data are mean ± sem.
# Osteoblast-like cells were prepared by sequential collagenase digestion of calvariae from 20 day fetal rats, as described previously, Lowe, C., Cornish, J., Callon, K, Martin, T. J., and Reid, I. R. (1991) J. Bone Miner. Res. 6, 1277-1283.
# [5] = tested on: mouse calvaria; assay: Systemic in vivo experiment, calvarial histomorphometry; design: species or system mice
# Experimental: We have also conducted the following systemic in vivo experiment where amylin at a concentration of 10^-8 M is injected subcutaneously.
# Calvarial Histomorphometry
# 11 mice in each treatment group.
# Differences between control and amylin groups were statistically tested using an unpaired Student t test.
# Measurements are recorded per mm calvarial length.
# [6] = injected vs uninjected hemicalvaria
# [7] = systemic test, summary in words
compound,measurement,setting,value
"O=C(O)C(F)(F)F [TFA, trifluoroacetic acid]",cell numbers,"[1]; 4×10^-8 M, exposed for 24 hrs, control 5.6±0.3×10^4",4.2±0.3×10^4
"Amylin, TFA Salt: amylin as trifluoroacetic acid salt, generally the tetra-TFA salt, as isolated by HPLC (KCNTATCATQRLANFLVHSSNNFGAILSSTNVGSNTY; not fully specified (C-terminus, bridges); cysteine pairing not given here; also: trifluoroacetate salt; UniProt P10997 34-70, looked up)",Osteoblast Numbers after 24 h culture,"[2]; 10^-8 M, control 4.6 ± 0.64",5.6 ± 0.96 10^4 cells/well
"Amylin, chloride salt: amylin salt prepared by dissolving peptide in 3 mM hydrochloric acid and freeze-drying (KCNTATCATQRLANFLVHSSNNFGAILSSTNVGSNTY; not fully specified (C-terminus, bridges); cysteine pairing not given here; also: chloride salt; UniProt P10997 34-70, looked up)",Osteoblast Numbers after 24 h culture,"[2]; 10^-8 M, control 4.6 ± 0.64",7.9 ± 1.00 10^4 cells/well
"CGRP: rat calcitonin gene-related peptide-1, a peptide related to amylin (SCNTATCVTHRLAGLLSRSGGVVKDNFVPTNVGSEAF; not fully specified (C-terminus, bridges); cysteine pairing not given here; UniProt P01256 83-119, looked up)",effect on cell number (osteoblast proliferation),[1]; dose-response (FIG. 1a),"increased osteoblast proliferation, but the effect was smaller and only significant at 10^-8 M"
"Rat calcitonin: rat calcitonin peptide, comparator (CGNLSTCMLGTYTQDLNKFHTFPQTSIGVGAP; ends and bridges not checked; cysteine pairing not given here; UniProt P01257 85-116, looked up) [reference compound]",eroded surface,[3],reduced eroded surface to a similar extent to amylin
same,mineralized bone area increase,[3]; non-significant,4%
same,effect on cell number (osteoblast proliferation),[1]; 10^-9 -10^-7 M,without effect
amylin: 37-amino acid peptide cosecreted with insulin from pancreatic beta cells; species not printed at place (rat amylin per FIG. 1-4 legends),cell number over time,[2]; time-course 6 to 48 hours (FIG. 2),increased in amylin-treated cells from 6 to 48 hours
same,bone resorption,[3]; [6],decreases in bone resorption of comparable magnitude
same,indices of bone formation,[3]; [6],two- to three-fold increases
same,DNA synthesis assessed by thymidine incorporation,[4],sustained increase in DNA synthesis
same,stimulation of osteoblast proliferation,"[1]; actively growing cells (2% fetal calf serum, FIG. 1b)",also observed in actively growing cells
same,effect on cell number (osteoblast proliferation),[1]; dose-response (FIG. 1a),"substantial, dose-related increase in cell number"
same,indices of bone formation compared to control,[5]; [7],significant increases in all indices of bone formation
same,indices of bone resorption compared to control,[5]; [7],significant decreases in indices of bone resorption
same,osteoid area,"[5]; systemic, subcutaneous, 10^-8 M, mean, per mm calvarial length, control 0.0005",0.0018 mm^2
same,osteoclast surface,"[5]; systemic, subcutaneous, 10^-8 M, mean, per mm calvarial length, control 0.094",0.019 mm
same,eroded surface,"[5]; systemic, subcutaneous, 10^-8 M, mean, per mm calvarial length, control 0.294",0.081 mm
same,osteoblast surface,"[5]; systemic, subcutaneous, 10^-8 M, mean, per mm calvarial length, control 0.85",1.76 mm
same,osteoclast number,"[5]; systemic, subcutaneous, 10^-8 M, mean, per mm calvarial length, control 3.6",1.2
same,osteoblast number,"[5]; systemic, subcutaneous, 10^-8 M, mean, per mm calvarial length, control 73.6",147.5
parathyroid hormone,reduced cell numbers,"[1]; 10^-8 M, at 24 hours",18%
"rat amylin: rat form of the 37-amino acid peptide amylin (KCNTATCATQRLANFLVRSSNNLGPVLPPTNVGSNTY; not fully specified (C-terminus, bridges); cysteine pairing not given here; UniProt P12969 38-74, looked up)",Osteoblast Numbers after 24 h culture,"[2]; 10^-9 M, control 4.2 ± 0.6",5.9 ± 0.8 x10^4 cells/well
salmon calcitonin,effect on cell number (osteoblast proliferation),[1]; 10^-7 M,without effect
